One compound from article PMC9613470, “Diverse MarR bacterial regulators of auxin catabolism in the plant microbiome” (Nature Microbiology, 2022) can be followed below.

Test [1] has as its target Variovorax paradoxus CL14 MarR_50. Description: ITC IAA binding to MarR_50 (IadR2). The note with it: 25 °C, IadR2 (MarR_50-like). Here is the method:
The coding sequence for each gene can be found in Supplementary Table 10. MarR expression plasmids were synthesized as codon-optimized genes for E. coli expression by BioBasic in the pLIC-His N-term vector (pMCSG7) and transformed into E. coli BL21 (DE3) Gold cells for expression. […] At an OD600 of 0.8, protein expression was induced by the addition of 0.1 mM IPTG and incubation continued overnight. Cells were collected by centrifugation at 4,500 × g for 20 min at 4 °C in a Sorvall (model RC-3B) swinging bucket centrifuge. Cell pellets were resuspended in buffer A (20 mM potassium phosphate, pH 7.4, 50 mM imidazole, 500 mM NaCl), DNase, lysozyme and a Roche Complete EDTA-free protease inhibitor tablet. Resuspended cells were sonicated and clarified via centrifugation at 17,000 × g for 60 min in a Sorvall (model RC-5B) swinging bucket centrifuge. The lysate was applied to a nickel-nitrilotriacetic acid HP column (GE Healthcare) on an Aktaxpress Fast Performance Liquid Chromatography (FPLC) system (Amersham Bioscience) and washed with buffer A. Protein was eluted with buffer B (20 mM potassium phosphate, pH 7.4, 500 mM imidazole, 500 mM NaCl). Fractions containing the protein of interest were combined and passed over a HiLoadTM 16/60 SuperdexTM 200 gel filtration column. Proteins were eluted in S200 buffer (20 mM HEPES, pH 7.4, 300 mM NaCl). […]

Test [2] has as its system A. thaliana ecotype Col-0. Description: Root growth inhibition assay (primary root elongation). It is filed as in vivo, Arabidopsis thaliana. The note with it: Arabidopsis seedlings with IAA alone, 1 µM IAA. Here is the method: A. thaliana ecotype Col-0 seeds were sterilized in 70% household bleach, 0.2% Tween-20 for 10 min with vigorous agitation and then rinsed 10 times with sterile distilled water. Seeds were stratified at 4 °C in sterile distilled water for 1–2 d. […] Then 8 to 10 plants were aseptically transferred to 12 ×12 cm plates containing 0.5x MS agar medium without sucrose where the medium surface was spread with the bacterial inoculum. […] The plant root tip location was marked on plates after transfer to record the initial root tip position. […] Plates were imaged on a document scanner and primary root elongation was determined using imageJ to quantify the change in root tip position from the initial to the final position.
Individual bacterial strains were grown on agar plates of the media types specified above at 28 °C. […] The optical density at 600 nm (OD600) was measured for each washed strain and normalized to OD600 of 0.01 in 10 mM MgCl2. […]
The 175-member synthetic community (SC185-10V) was prepared as described for the 185-member synthetic community used previously[14] by leaving out the 10 isolates from the genus Variovorax. […] The OD600 of the strains in each well was measured and the strains were combined while normalizing the OD600 of each strain in the pool. […] The OD600 values of the 10 cultures were measured and the 10 strains were pooled while normalizing the OD600 of each strain to the same value. […]

As for `O=C(O)Cc1c[nH]c2ccccc12` [IAA, indole-3-acetic acid], the KD1 result in test [1] was “No Binding”. Besides, the “root growth inhibition (RGI) phenotype” value in test [2] is reported as “severe RGI phenotype”.
